Data as given in patent publication US20160084820A1, “METHODS OF TREATING OR PREVENTING PERIODONTITIS AND DISEASES ASSOCIATED WITH PERIODONTITIS” (priority 2010, published 2016).

Columns and labels:
[1] = system: mouse peritoneal macrophages; assay: P. gingivalis phagocytosis and receptor expression by flow cytometry; type: cell-based; details: C5a 50 nM or C3a 200 nM, 30-min incubation
Method: First, experiments were performed to determine the effect of C5a (50 nM) or C3a (200 nM) on P. gingivalis phagocytosis by unprimed or IFN-γ-primed mouse peritoneal macrophages (FIG. 6A). The phagocytic index was calculated following a 30-min incubation using the following formula: % positive cells for fluorescently labeled P. gingivalis×MFI/100 (extracellular fluorescence was quenched prior to flow cytometry). Mouse macrophages were incubated at 37° C. for 30 min (B) or 24 hours (C) with medium, C5a (50 nM) only, or P. gingivalis (MOI=10:1) with or without C5a (50 nM). The expression levels of the indicated receptors, which coordinately mediate P. gingivalis uptake, were determined by flow cytometry after cell staining with appropriate fluorescently labeled antibodies (FIGS. 6B and 6C). The 30-min time point was examined to determine possible induced surface expression of preformed receptors from intracellular pools. […] Mouse-specific mAbs to TLR2 (clone 6C2), TLR1 (TR23), CD14 (Sa2-8), CD11b (M1/70), and CD18 (M18/2) were obtained from e-Bioscience.

[2] = system: phagocytosed P. gingivalis in mouse peritoneal macrophages; type: cell-based, P. gingivalis ATCC 33277; details: Pg MOI=10:1; C5a 50 nM or C3a 200 nM; 24 or 48 hours post-infection
Method: The viability of phagocytosed P. gingivalis was monitored by an antibiotic protection-based intracellular survival assay, as previously described (Wang et al., 2007, J. Immunol., 179:2349-58). Briefly, mouse peritoneal macrophages were allowed to phagocytose P. gingivalis (MOI=10:1; 5×10^6 bacteria and 5×10^5 cells) for […] at 37° C. This was followed by washing to remove extracellular nonadherent bacteria and 1-hour treatment with antibiotics (300 μg/ml gentamicin and 200 μg/ml metronidazole) to eliminate residual or extracellular adherent bacteria. The macrophages were subsequently cultured overnight (for a total of 24 hours) or for 48 hours Immediately after, the macrophages were washed and lysed in sterile distilled water, and viable counts of internalized P. gingivalis were determined by plating serial dilutions of macrophage lysates on blood agar plates subjected to anaerobic culture.
The viability of phagocytosed P. gingivalis was monitored by an antibiotic protection-based intracellular survival assay, as previously described (Wang et al., 2007, J. Immunol., 179:2349-58)). Briefly, mouse peritoneal macrophages were allowed to phagocytose P. gingivalis (at a MOI=10:1; 5×10^6 bacteria and 5×10^5 macrophages) for 30 min at 37° C. This was followed by washing to remove extracellular nonadherent bacteria and 1-hour treatment with antibiotics (300 μg/ml gentamicin and 200 μg/ml metronidazole) to eliminate residual or extracellular adherent bacteria. The macrophages were subsequently cultured overnight for a total of 24 hours Immediately after, the macrophages were washed and lysed in sterile distilled water and viable counts of internalized P. gingivalis were determined by plating serial dilutions of macrophage lysates on blood agar plates subjected to anaerobic culture.

[3] = system: lipid rafts (GM1 ganglioside); assay: FRET of TLR2, C5aR, CXCR4 with GM1 lipid raft marker; type: cell-based, mouse; details: MCD 10 mM for 30 min
Method: Upon stimulation for 10 min at 37° C. with P. gingivalis, mouse macrophages were labeled with a mixture of Cy3-conjugated (donor) and Cy5-conjugated (acceptor) antibodies, as indicated in FIG. 4I. In additional experiments shown in FIG. 4I, FITC-labeled P. gingivalis was used as donor and TRITC-labeled receptors served as acceptors. The cells were washed and fixed, and energy transfer between various donor-acceptor pairs was calculated from the increase in donor fluorescence after acceptor photobleaching (REF 9, 14). […] The conjugation of antibodies to Cy3 or Cy5 was performed using kits from Amersham Biosciences.
Supplemental experiments also examined the association of TLR2, C5aR, and CXCR4 with GM1 (lipid raft marker) in P. gingivalis-stimulated macrophages (FIG. 10). Mouse macrophages were pretreated (or not) with methyl-β-cyclodextrin (MCD; 10 mM for 30 min) and then stimulated for 10 min with P. gingivalis (Pg; MOI=10:1) or medium only (med). Fluorescence resonance energy transfer (FRET) between TLR2, C5aR, CXCR4, TLR5, or MHC Class I (Cy3-labeled) and the GM1 ganglioside (Cy5-labeled) was measured from the increase in donor (Cy3) fluorescence after acceptor (Cy5) photobleaching. TLR5 and MHC Class I served as negative controls. […] As expected, max FRET values (38±1.2) were not affected by the cell activation status (med vs. Pg) or the use or not of MCD.

Row | Substance | P. gingivalis phagocytosis [1] | intracellular survival of P. gingivalis in macrophages (viable counts of internalized bacteria) [2] | FRET increase between receptors and GM1 in P. gingivalis-stimulated macrophages [3]
1 | C3a: related anaphylatoxin C3a from R&D Systems | not significantly affected | not by the related anaphylatoxin C3a | 
2 | methyl-β-cyclodextrin [MCD] |  |  | reversal of FRET increase
